Values quoted from earlier work, collected in patent publication US9192596B2, “Self-emulsifying pharmaceutical compositions of rhein or diacerein” (WOCKHARDT RESEARCH CENTRE, priority 2007, dated 2015).
Structures can show the parent of a compound that is named as a salt.

Legend:
[1] = inherent pharmacokinetic property; rhein-glucuronide converted to rhein-9-anthrone in colon
[2] = not given; remark: listed apart in the source

| solubility in water (EP 243,968) | soft stool effect expected due to enterohepatic circulation [1] | solubility (water, alcohols, acetone, dichloromethane and chloroform) | pKa [2] | SMILES | stability ([2]; acidic and alkaline conditions) |
| --- | --- | --- | --- | --- | --- |
| water-soluble |  |  |  | CC(=O)Oc1cccc2c1C(=O)c1c(OC(C)=O)cc(C(=O)O)cc1C2=O [potassium salt of diacerein] |  |
|  | 30-40% | practically insoluble | 4.5 | CC(=O)Oc1cccc2c1C(=O)c1c(OC(C)=O)cc(C(=O)O)cc1C2=O [diacerein, 4,5-bis(acetyloxy) 9,10-dihydro-4,5-dihydroxy-9,10-dioxo-2-anthracenecarboxylic acid] | instability under acidic and alkaline conditions |
